Measurements taken from the CheMixHub viscosity set.
± gives the uncertainty stated by the source.

Assay: xn = mol fraction of the nth substance listed

C1COCCO1 + c1ccccc1
303.15 K, 101 kPa
Conditions	viscosity [mPa·s]
x1 = 0.1009	0.603 ± 0.006
x1 = 0.104	0.599 ± 0.011
x1 = 0.207	0.644 ± 0.011
x1 = 0.3017	0.687 ± 0.007
x1 = 0.309	0.686 ± 0.012
x1 = 0.4005	0.736 ± 0.007
x1 = 0.411	0.733 ± 0.013
x1 = 0.4969	0.787 ± 0.008
x1 = 0.511	0.779 ± 0.013
x1 = 0.6	0.841 ± 0.008
x1 = 0.61	0.828 ± 0.014
x1 = 0.7019	0.895 ± 0.009
x1 = 0.709	0.882 ± 0.015
x1 = 0.8015	0.961 ± 0.009
x1 = 0.807	0.937 ± 0.016
x1 = 0.904	0.991 ± 0.016

Brc1ccccc1 + CCC(C)=O
303.15 K, 101 kPa
Conditions	viscosity [mPa·s]
x2 = 0.1487	0.899 ± 0.004
x2 = 0.2073	0.858 ± 0.004
x2 = 0.3888	0.74 ± 0.004
x2 = 0.5263	0.656 ± 0.004
x2 = 0.7046	0.556 ± 0.004
x2 = 0.8307	0.486 ± 0.004

C1=C[C@H]2[C@@H](C1)[C@H]1C=C[C@@H]2C1 + CCCCCO
viscosity [mPa·s], 101.2 kPa
Conditions	x1 = 0.1058	x1 = 0.1953	x1 = 0.3	x1 = 0.4005	x1 = 0.498	x1 = 0.5999	x1 = 0.7018	x1 = 0.8009	x1 = 0.8999
293.15 K	3.719 ± 0.18	3.558 ± 0.16	3.422 ± 0.16	3.307 ± 0.15	3.279 ± 0.15	3.283 ± 0.16	3.368 ± 0.16	3.522 ± 0.18	3.876 ± 0.22
303.15 K	2.86 ± 0.13	2.734 ± 0.13	2.63 ± 0.12	2.569 ± 0.12	2.547 ± 0.12	2.575 ± 0.12	2.648 ± 0.13	2.784 ± 0.14	3.037 ± 0.17
313.15 K	2.201 ± 0.1	2.126 ± 0.097	2.062 ± 0.095	2.032 ± 0.094	2.035 ± 0.095	2.075 ± 0.099	2.14 ± 0.11	2.259 ± 0.12	2.466 ± 0.14

C1COCCO1 + CCC(C)O
298.15 K, 101 kPa
Conditions	viscosity [mPa·s]
x1 = 0.0413	2.47 ± 0.063
x1 = 0.1256	1.88 ± 0.045
x1 = 0.236	1.474 ± 0.032
x1 = 0.3042	1.324 ± 0.027
x1 = 0.4175	1.173 ± 0.022
x1 = 0.5	1.133 ± 0.028
x1 = 0.5207	1.092 ± 0.018
x1 = 0.5916	1.061 ± 0.016
x1 = 0.7413	1.046 ± 0.014
x1 = 0.8431	1.071 ± 0.012
x1 = 0.9423	1.119 ± 0.011

[Br-].[NH4+] + O
298.15 K, 101 kPa
Conditions	viscosity [mPa·s]
x1 = 0.0089	0.8738
x1 = 0.0177	0.8563
x1 = 0.0348	0.8265

CCCC#N + CCC(C)O
viscosity [mPa·s], 101.33 kPa
Conditions	x2 = 0.1016	x2 = 0.1946	x2 = 0.2965	x2 = 0.3938	x2 = 0.4949	x2 = 0.5951	x2 = 0.6966	x2 = 0.7945	x2 = 0.8999
298.15 K	0.572 ± 0.004	0.605 ± 0.004	0.652 ± 0.005	0.717 ± 0.005	0.811 ± 0.007	0.945 ± 0.008	1.141 ± 0.009	1.435 ± 0.011	1.982 ± 0.015
308.15 K	0.508 ± 0.004	0.532 ± 0.004	0.567 ± 0.004	0.616 ± 0.004	0.685 ± 0.005	0.782 ± 0.007	0.921 ± 0.008	1.123 ± 0.009	1.478 ± 0.011
318.15 K	0.454 ± 0.004	0.472 ± 0.004	0.499 ± 0.004	0.536 ± 0.004	0.59 ± 0.004	0.658 ± 0.005	0.758 ± 0.006	0.898 ± 0.007	1.135 ± 0.009

COC(=O)CC(=O)OC + c1ccccc1
303.15 K, 101 kPa
Conditions	viscosity [mPa·s]
x1 = 0.0794	0.6916 ± 0.007
x1 = 0.1634	0.8208 ± 0.0082
x1 = 0.2505	0.9519 ± 0.0094
x1 = 0.3426	1.078 ± 0.011
x1 = 0.4381	1.206 ± 0.012
x1 = 0.5395	1.341 ± 0.013
x1 = 0.6457	1.456 ± 0.014
x1 = 0.7579	1.58 ± 0.015
x1 = 0.8751	1.696 ± 0.017

CC(=O)OCC(COC(C)=O)OC(C)=O + CCCCO
viscosity [mPa·s], 101.33 kPa
Conditions	x1 = 0.1	x1 = 0.2	x1 = 0.3	x1 = 0.4	x1 = 0.5	x1 = 0.6	x1 = 0.7	x1 = 0.8	x1 = 0.9
298 K	2.4 ± 0.02	2.7 ± 0.03	3.12 ± 0.03	3.71 ± 0.04	4.5 ± 0.05	5.57 ± 0.07	6.99 ± 0.09	9.02 ± 0.13	11.93 ± 0.18
303 K	2.11 ± 0.02	2.34 ± 0.02	2.69 ± 0.03	3.17 ± 0.04	3.82 ± 0.04	4.65 ± 0.06	5.79 ± 0.07	7.34 ± 0.1	9.49 ± 0.13
308 K	1.87 ± 0.02	2.06 ± 0.02	2.36 ± 0.03	2.75 ± 0.03	3.27 ± 0.04	3.96 ± 0.05	4.86 ± 0.06	6.07 ± 0.08	7.72 ± 0.1
313 K	1.67 ± 0.02	1.83 ± 0.02	2.07 ± 0.02	2.4 ± 0.03	2.84 ± 0.03	3.41 ± 0.04	4.15 ± 0.05	5.1 ± 0.06	6.39 ± 0.08

N#C[S-].[NH4+] + CCOS(=O)(=O)[O-].CC[n+]1ccn(C)c1
viscosity [mPa·s], 101 kPa
Conditions	x1 = 0.0235	x1 = 0.1553	x1 = 0.3025	x1 = 0.4042	x1 = 0.5205	x1 = 0.565	x1 = 0.5997
298.15 K	103.1 ± 1.7	150 ± 3.3	209.3 ± 5.7	231.1 ± 6.7	223.9 ± 6.5	215.9 ± 6.1	208.9 ± 5.8
303.15 K	81.26 ± 1.1	118 ± 2.2	163.3 ± 3.9	178.7 ± 4.6	173.4 ± 4.5	172.5 ± 4.4	168.2 ± 4.2
308.15 K	65.16 ± 0.72	94.31 ± 1.5	129.6 ± 2.6	140.9 ± 3.1	135.3 ± 3	133.9 ± 2.9	133.7 ± 2.9
313.15 K	53.09 ± 0.51	76.57 ± 0.97	104.6 ± 1.8	112.9 ± 2.1	107.5 ± 2	106 ± 2	105.4 ± 2
318.15 K	43.86 ± 0.44	63.03 ± 0.67	85.57 ± 1.2	91.83 ± 1.4	86.87 ± 1.4	85.31 ± 1.3	84.57 ± 1.3
323.15 K	36.68 ± 0.35	52.56 ± 0.5	70.9 ± 0.86	75.56 ± 1	71.22 ± 0.95	69.75 ± 0.94	68.92 ± 0.94
